The values that follow are results of earlier work, collected in paper PMC8309005, “Novel Non-Congeneric Derivatives of the Choline Kinase Alpha Inhibitor ICL-CCIC-0019” (Pharmaceutics, 2021).

A word on the GI50: it is the concentration at which growth is held to half of that of the control. Usually IC50 stands for the concentration that inhibits the measured activity by half.

One data set deals with HeLa. More on the design: method as in ref 20, 21 (MN58B), 23 (RSM-932A). The note with it: 21 (MN58B), 23 (RSM-932A); cited from earlier work.
In another data set the test system is HepG2. The arrangement: method as in PMID 25487918. The note with it: cited from earlier work.
A further data set concerns CHKA. The arrangement: method as in ref 18, 25 (HC-3), 20, 21 (MN58B), 23 (RSM-932A). The note with it: CHKA inhibitors of Figure 1; 25 (HC-3), 20, 21 (MN58B), 23 (RSM-932A); cited from earlier work.
Another data set concerns HT-29. More on the design: method as in ref 20, 21 (MN58B), 23 (RSM-932A). The note with it: 21 (MN58B), 23 (RSM-932A); cited from earlier work.
In another data set the test system is NIH3T3. More on the design: method as in PMID 22278967, PMID 9393874. The note with it: cited from earlier work.
For another data set, the system named is SKBR3. More on the design: method as in PMID 22278967, PMID 9393874. The note with it: cited from earlier work.
A further data set concerns A431. The arrangement: method as in PMID 12678804, PMID 10397253. Particulars: cited from earlier work.
The subject of a further data set is MCF-7. More on the design: method as in PMID 12678804, PMID 10397253. Particulars: cited from earlier work.

On to `C/[N+](c1ccc(Cl)cc1)=c1\ccn(Cc2ccc(-c3ccc(Cn4cc/c(=[N+](/C)c5ccc(Cl)cc5)c5ccccc54)cc3)cc2)c2ccccc12` [RSM-932A], for which the values for the GI50 with HeLa, in the data set with HepG2 and in the data set with HT-29 were 1 µM, 1.3 µM and 1.3 µM, respectively. The IC50 in the data set on CHKA is 1 µM.

With `C[N+]1(C)CCOC(O)(c2ccc(-c3ccc(C4(O)C[N+](C)(C)CCO4)cc3)cc2)C1` (stereo not drawn) [HC-3, Hemicholinium-3], the results for the GI50 with NIH3T3 and in the data set with SKBR3 were 600 µM and above 500 µM, respectively. Further, the IC50 in the data set with CHKA is 0.95 µM.

Turning to `CN(C)c1cc[n+](Cc2ccc(CCCCc3ccc(C[n+]4ccc(N(C)C)cc4)cc3)cc2)cc1` [MN58B], the GI50 with HeLa was 1.2 µM; in the data set with A431 it was 2.1 µM; in the data set on HT-29 it was 1.4 µM; in the data set with MCF-7, 0.6 µM. In addition, the IC50 in the data set on CHKA is 1.4 µM.
